Assay results published in patent US8648068B2, “Heterocycloalkyl-containing thienopyrimidines for pharmaceutical compositions” (Boehringer Ingelheim International GmbH, priority 2010, dated 2014).
pIC50: −log10 of the molar value.

Molecular target: T1, human Mnk2a (Homo sapiens, UniProt Q9HBH9)
T1 construct: made in house; host or cells: E. coli BL21 (vector pGEX-4T1)
Assay: Mnk2a in vitro kinase assay (indirect fluorescence polarization)
Format: biochemical
Settings: GST-Mnk2a pre-activated with ERK2, 20 μM ATP, 30 μM substrate peptide; read-out: MNK2 IC50
Experimental: Inhibitory potency of compounds against Mnk1, Mnk2a and other kinases was assessed with assays based on a format known to those skilled in the art as the indirect (competitive) fluorescence polarization. The assay detection system comprises a small fluorophore-labeled phospho-peptide (termed ligand) bound to a phospho-specific antibody. The product generated by the kinase reaction competes with the ligand for antibody binding. Based on the larger molecular volume of the bound ligand, which results in a lower rotation rate in solution, its emitted light has a higher degree of polarization than the one from the free ligand.
As a source of enzyme, human Mnk1 and human Mnk2a were expressed as GST fusion proteins in E. coli, purified to >80% homogeneity by glutathione affinity chromatography and activated in vitro with pre-activated ERK2. In brief, the open reading frames of human Mnk1 and Mnk2a were amplified from cDNA using the forward/reverse primer pairs
(utilized restriction sites underlined), respectively, and cloned into the BamHI and SalI sites of the vector pGEX-4T1 (Amersham, Sweden, cat. no. 27-4580-01). These constructs allow prokaryotic expression of Mnk1 or Mnk2a as fusion protein with a N-terminal glutathione S-transferase (GST) tag, referred to as GST-Mnk1 or GST-Mnk2a. The following expression and purification procedure was identical for GST-Mnk1 and GST-Mnk2a, referring in general to GST-Mnk, when not distinguishing between the two isoforms. Expression of GST-Mnk was in E. coli BL21 (Merck Biosciences, Germany, cat. no. 69449). Cells were grown in LB-Bouillon (Merck, Germany, cat. no. 1.10285) supplemented with 100 μg/ml ampicillin (Sigma, Germany, cat. no. A9518) at 37° C. When the culture had reached a density corresponding to an A600 of 0.8, an equal volume of ice cold LB/ampicillin was added, the culture transferred to 25° C. and induced for 4 h with 1 mM isopropyl thiogalactoside (IPTG, Roth, Germany, cat. no. 2316.4). Cells harvested by centrifugation were resuspended in 10 ml lysis buffer (50 mM tris(hydroxymethyl)aminomethane hydrochloride (Tris/HCl, Sigma, Germany, cat. no. T5941) pH 7.5, 300 mM sodium chloride (NaCl, Sigma, Germany, cat. no. S7653), 5% (w/v) glycerol (Sigma, Germany, cat. no. G5516), 3 mM DTT dithiotreitol (DTT, Sigma, Germany, cat. no. D9779)) per gram wet weight cell pellet. Lysates were prepared by disruption of cells with a sonifier and subsequent clearing by centrifugation at 38000 g for 45 min at 4° C.
The lysate was applied to a GSTPrep FF 16/10 column (Amersham, Sweden, cat. no. 17-5234-01) equilibrated with lysis buffer. Removal of unbound material was with 3 column volumes (CV) lysis buffer. Elution was with 2 CV of elution buffer (50 mM Tris/HCl pH 7.5, 300 mM NaCl, 5% (w/v) glycerol, 20 mM glutathione (Sigma, Germany, cat. no. G4251)). Peak fractions were pooled and the protein transferred into storage buffer (50 mM Tris/HCl pH 7.5, 200 mM NaCl, 0.1 mM ethylene glycol-bis(2-aminoethylether)-N,N,N′,N′-tetraacetic acid (EGTA, Aldrich, Germany, cat. no. 23, 453-2), 1 mM DTT, 10% (w/v) glycerol, 0.5 M sucrose (Sigma, Germany, cat. no. SO389) by gel filtration on a PD10 desalting column (Amersham, Sweden, cat. no. 17-0851-01). Aliquots were shock frozen in liquid nitrogen and stored at −80° C.
Activation of Mnk1 and Mnk2a was at a concentration of 2.5 μM of either purified GST-Mnk1 or GST-Mnk2a by incubation with 150 nM pre-activated NHis-ERK2 (see ERK2 assay for preparation) and 50 μM adenosine triphosphate (ATP, Sigma, cat. no. A2699) in a buffer comprising 20 mM N-(2-hydroxyethyl)piperazine-N′-(2-ethanesulfonic acid) (HEPES, Fluka, Germany, cat. no 54459)/potassium hydroxide (KOH, Roth, Germany, cat. no 6751.1) pH 7.4, 10 mM magnesium chloride (MgCl2, Sigma, Germany, cat. no. M2670), 0.25 mM DTT, 0.05% (w/v) polyoxyethylene 20 stearylether (Brij 78, Sigma, Germany, cat. no. P4019) (HMDB buffer) for 45 min at 30° C. […]

T1 sequence (Q9HBH9 whole entry): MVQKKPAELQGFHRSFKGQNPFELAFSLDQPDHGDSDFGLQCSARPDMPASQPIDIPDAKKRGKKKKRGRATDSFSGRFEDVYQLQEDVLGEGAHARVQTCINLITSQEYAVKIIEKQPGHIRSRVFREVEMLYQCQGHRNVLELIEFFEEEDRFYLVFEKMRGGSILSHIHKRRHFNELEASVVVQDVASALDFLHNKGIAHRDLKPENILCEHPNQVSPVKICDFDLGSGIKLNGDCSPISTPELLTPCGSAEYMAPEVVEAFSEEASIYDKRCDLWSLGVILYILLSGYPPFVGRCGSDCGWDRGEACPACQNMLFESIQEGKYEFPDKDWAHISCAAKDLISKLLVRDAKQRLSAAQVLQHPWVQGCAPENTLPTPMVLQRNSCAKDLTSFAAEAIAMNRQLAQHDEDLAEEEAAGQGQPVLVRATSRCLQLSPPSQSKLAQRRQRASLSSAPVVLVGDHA

| SMILES | pIC50 |
| --- | --- |
| Cc1c(C(N)=O)sc2ncnc(Nc3ccc(F)cc3O[C@@H]3CCCNC3)c12 [Example 71, 4-[4-Fluoro-2-((R)-piperidin-3-yloxy)-phenylamino]-5-methyl-thieno[2,3-d]pyrimidine-6-carboxylic acid amide] | 7.05 |
| COCCN1CCC[C@@H](Oc2cc(F)ccc2Nc2ncnc3sc(C(N)=O)c(C)c23)C1 [Example 75] | 7.66 |
| Cc1c(C(N)=O)sc2ncnc(Nc3ccc(F)cc3O[C@@H]3CCCN(C)C3)c12 [Example 76, 4-[4-Fluoro-2-((R)-1-methyl-piperidin-3-yloxy)-phenylamino]-5-methyl-thieno[2,3-d]pyrimidine-6-carboxylic acid amide] | 7.37 |
| Cc1c(C(N)=O)sc2ncnc(Nc3ccc(F)cc3O[C@@H]3CCCN(Cc4nccs4)C3)c12 [Example 78] | 7.55 |
| Cc1c(C(N)=O)sc2ncnc(Nc3ccc(F)cc3O[C@@H]3CCCN(CCO)C3)c12 [Example 80] | 7.70 |
| CC(=O)N1CCC[C@@H](Oc2cc(F)ccc2Nc2ncnc3sc(C(N)=O)c(C)c23)C1 [Example 83] | 6.92 |
| Cc1c(C(=O)NCCCN(C)C)sc2ncnc(Nc3ccc(F)cc3O[C@@H]3CCCOC3)c12 [Example 88, 4-{4-Fluoro-2-[(R)-(tetrahydro-pyran-3-yl)oxy]-phenylamino}-5-methyl-thieno[2,3-d]pyrimidine-6-carboxylic acid (3-dimethylamino-propyl)-amide] | 7.66 |
| Cc1c(C(=O)NC2CCN(C)CC2)sc2ncnc(Nc3ccc(F)cc3OC3CCN(S(C)(=O)=O)C3)c12 (stereo not drawn) [Example 91] | 7.29 |
| CONC(=O)c1sc2ncnc(Nc3ccc(F)cc3OC3CCN(S(C)(=O)=O)C3)c2c1C (stereo not drawn) [Example 92] | 7.35 |
| Cc1c(C(=O)NO)sc2ncnc(Nc3ccc(F)cc3OC3CCN(S(C)(=O)=O)C3)c12 (stereo not drawn) [Example 93] | 7.72 |
| COCC(=O)N1CCC(Oc2cc(F)ccc2Nc2ncnc3sc(C(N)=O)c(C)c23)C1 (stereo not drawn) [Example 94, 4-{4-Fluoro-2-[1-(2-methoxy-acetyl)-pyrrolidin-3-yloxy]-phenylamino}-5-methyl-thieno[2,3-d]pyrimidine-6-carboxylic acid amide] | 6.52 |
| Cc1c(C(N)=O)sc2ncnc(Nc3ccc(F)cc3OC3CCN(C(=O)CN(C)C)C3)c12 (stereo not drawn) [Example 95, 4-{2-[1-(2-Dimethylamino-acetyl)-pyrrolidin-3-yloxy]-4-fluoro-phenylamino}-5-methyl-thieno[2,3-d]pyrimidine-6-carboxylic acid amide] | 6.34 |
| CC(=O)N1CC[C@H](Oc2cc(F)ccc2Nc2ncnc3sc(C(N)=O)c(C)c23)C1 [Example 96, 4-[2-((S)-1-Acetyl-pyrrolidin-3-yloxy)-4-fluoro-phenylamino]-5-methyl-thieno[2,3-d]pyrimidine-6-carboxylic acid amide] | 5.96 |
| CC(=O)N1CC[C@@H](Oc2cc(F)ccc2Nc2ncnc3sc(C(N)=O)c(C)c23)C1 [Example 98, 4-[2-((R)-1-Acetyl-pyrrolidin-3-yloxy)-4-fluoro-phenylamino]-5-methyl-thieno[2,3-d]pyrimidine-6-carboxylic acid amide] | 7.03 |

Further compounds by rising pIC50, results first:

| pIC50 | SMILES |
| --- | --- |
| 7.72 | Cc1c(C(N)=O)sc2ncnc(Nc3cccnc3O[C@H]3CCCNC3)c12 [Example 69, 5-Methyl-4-[2-((S)-piperidin-3-yloxy)-pyridin-3-ylamino]thieno[2,3-d]pyrimidine-6-carboxylic acid amide] |
| 7.85 | CNC(=O)c1sc2ncnc(Nc3ccc(F)cc3OC3CCN(S(C)(=O)=O)C3)c2c1C (stereo not drawn) [Example 90] |
| 7.92 | Cc1c(C(N)=O)sc2ncnc(Nc3ccc(F)cc3O[C@@H]3CCCN(CCC(F)(F)F)C3)c12 [Example 79] |
| 7.92 | Cc1c(C(=O)NCCCN(C)C)sc2ncnc(Nc3ccc(F)cc3O[C@H]3CCCOC3)c12 [Example 87, 4-{4-Fluoro-2-[(S)-(tetrahydro-pyran-3-yl)oxy]-phenylamino}-5-methyl-thieno[2,3-d]pyrimidine-6-carboxylic acid (3-dimethylamino-propyl)-amide] |
| 7.96 | Cc1c(C(=O)NS(C)(=O)=O)sc2ncnc(Nc3ccc(F)cc3O[C@@H]3CCOC3)c12 [Example 101, N-(4-{4-Fluoro-2-[(R)-(tetrahydro-furan-3-yl)oxy]-phenylamino}-5-methyl-thieno[2,3-d]pyrimidine-6-carbonyl)-methanesulfonamide] |
| 8.05 | Cc1c(C(N)=O)sc2ncnc(Nc3ccc(F)cc3O[C@@H]3CCCN(Cc4ncon4)C3)c12 [Example 72, 4-[4-Fluoro-2-((R)-1-[1,2,4]oxadiazol-3-ylmethyl-piperidin-3-yloxy)-phenylamino]-5-methyl-thieno[2,3-d]pyrimidine-6-carboxylic acid amide] |
| 8.10 | Cc1c(C(N)=O)sc2ncnc(Nc3ccc(F)cc3O[C@@H]3CCCN(CCC#N)C3)c12 [Example 82, 4-{2-[(R)-1-(2-Cyano-ethyl)-piperidin-3-yloxy]-4-fluoro-phenylamino}-5-methyl-thieno[2,3-d]pyrimidine-6-carboxylic acid amide] |
| 8.10 | Cc1c(C(N)=O)sc2ncnc(Nc3ccc(F)cc3OC3CCN(S(C)(=O)=O)C3)c12 (stereo not drawn) [Example 89, 4-[4-Fluoro-2-(1-methanesulfonyl-pyrrolidin-3-yloxy)-phenylamino]-5-methyl-thieno[2,3-d]pyrimidine-6-carboxylic acid amide] |
| 8.15 | Cc1c(C(=O)NCCCN(C)C)sc2ncnc(Nc3ccc(F)cc3O[C@@H]3CCCN(S(C)(=O)=O)C3)c12 [Example 85] |
| 8.22 | Cc1c(C(N)=O)sc2ncnc(Nc3ccc(F)cc3O[C@@H]3CCCN(Cc4cccn4C)C3)c12 [Example 81] |
| 8.22 | Cc1c(C(=O)NCCO)sc2ncnc(Nc3ccc(F)cc3O[C@@H]3CCCN(S(C)(=O)=O)C3)c12 [Example 86] |
| 8.22 | Cc1c(C(N)=O)sc2ncnc(Nc3ccc(F)cc3O[C@@H]3CCN(S(C)(=O)=O)C3)c12 [Example 99, 4-[4-Fluoro-2-((R)-1-methanesulfonyl-pyrrolidin-3-yloxy)-phenylamino]-5-methyl-thieno[2,3-d]pyrimidine-6-carboxylic acid amide] |
| 8.30 | Cc1c(C(N)=O)sc2ncnc(Nc3ccc(F)cc3O[C@@H]3CCCN(CC(F)(F)F)C3)c12 [Example 73] |
| 8.30 | Cc1c(C(=O)NC#N)sc2ncnc(Nc3ccc(F)cc3O[C@@H]3CCOC3)c12 [Example 100, (R)—N-cyano-4-(4-fluoro-2-(tetrahydrofuran-3-yloxy)phenylamino)-5-methylthieno[2,3-d]pyrimidine-6-carboxamide] |
| 8.52 | Cc1c(C(N)=O)sc2ncnc(Nc3ccc(F)cc3O[C@@H]3CCCN(CC(F)F)C3)c12 [Example 74, 4-{2-[(R)-1-(2,2-Difluoro-ethyl)-piperidin-3-yloxy]-4-fluoro-phenylamino}-5-methyl-thieno[2,3-d]pyrimidine-6-carboxylic acid amide] |
| 8.70 | Cc1c(C(N)=O)sc2ncnc(Nc3ccc(F)cc3O[C@@H]3CCCN(S(C)(=O)=O)C3)c12 [Example 84, 4-[4-Fluoro-2-((R)-1-methanesulfonyl-piperidin-3-yloxy)-phenylamino]-5-methyl-thieno[2,3-d]pyrimidine-6-carboxylic acid amide] |
